According to patent publication US6426317B1, “Stable, high available halogen 1,3,5-triazine-2,4,6-trione compositions having rapid dissolution rates” (Great Lakes Chemical Corporation, priority 1999, dated 2002):

What was measured:
[1] = Off-gassing of granular formula compositions (Example 3); assay type: physicochemical; settings: Example 3, granules
Experimental: The formula compositions produced in this example were tested for their stability and in some cases for their solubility. The components used included a dissolution aid: disodium cyanurate, and a disintegration agent: microcrystalline cellulose, Lattice® NT (FMC).
Again, blended powder samples were prepared for each formula composition. A 20-gram sample of each test formula composition was placed in a 2.0 inch diameter dye-punch set and compressed under 22 tons of force for 60 minutes using a Carver press. The compressed wafer was reduced to granules using a spatula and a mortar and pestle set. Properly sized granules were collected using a standard sieve shaker.
Approximately one gram of each granular formula composition sample was placed in an eight-ounce sample container. […] The containers were vapor sealed and carefully placed in an approximately 50° C. oven for 24 hours. After the sample set was removed from the oven and cooled, a one-ml aliquot from each sample was placed in 50 ml of deionized water and titrated with 0.100 N sodium thiosulfate. The volume of thiosulfate reagent used to titrate the available halogen in the KI solution was recorded.

[2] = NFPA scale from 1 to 4, NFPA 430, 1995 edition; cited from earlier work
[3] = in water at 20° C.; cited from earlier work
[4] = for effect of additive on off-gassing of trichloroisocyanuric acid: Example 1, 25.5% additive
[5] = Total chlorine in synthetic pool water exposed to environmental UV light (Example 7); assay type: physicochemical; parameters: unit not given here
[6] = Off-gassing of roll-compacted granules contaminated with water (Examples 4-6); assay type: physicochemical; settings: Table 9; Example 6
[7] = Solubility (15-minute dissolution) of granules in balanced swimming pool water, thiosulfate titration; settings: Table 9; Example 6

Which “effect of additive on off-gassing” value [1] does the source give for `O=c1nc([O-])nc([O-])[nH]1.[Na+].[Na+]` [disodium cyanurate, disodium salt of 1,3,5-triazine-2,4,6-trione] here?
Its value is “do not significantly affect the off-gassing profile”.

Which “Oxidizer Rating” value [2] does the source give for `O=c1nc([O-])n(Cl)c(=O)n1Cl.[Na+]` [Sodium dichloroisocyanurate anhydrous, sodium dichloroisocyanurate] here?
Its value is 3.

What about the Solubility [3] of the same compound?
The Solubility was 12.5^4 g/100g (%).

For `OB(O)O` [boric acid], which “effect of additive on off-gassing of trichloroisocyanuric acid” value [4] is on record?
Its value is “do not significantly affect the off-gassing profile of trichloroisocyanuric acid”.

Which results are given for `[Li+].[O-]Cl` [Lithium hypochlorite]?
Oxidizer Rating [2]: 2; Solubility [3]: ≅43^3 g/100g (%)

For `O=c1[n-]c(=O)n(Cl)c(=O)n1Cl.[K+]` [Potassium dichloroisocyanurate anhydrous, potassium dichloroisocyanurate], which “Oxidizer Rating” value [2] is on record?
The value was 3.

What about the Solubility [3] of the same compound?
The Solubility was 5.0^4 g/100g (%).

With `O=C([O-])O.[Na+]` [sodium bicarbonate] as the compound, how does the “effect of additive on off-gassing of trichloroisocyanuric acid” value [4] read?
Its value is “increase gassing significantly”.

Which “Total Cl” value ([5]; sampling time 0:00 (Hr:Min), 10 ppm available halogen added, outdoor UV light) does the source give for `[Ca+2].[O-]Cl.[O-]Cl` [Calcium hypochlorite, calcium hypochlorite] here?
Its value is 0.02.

And the “Total Cl” value ([5]; sampling time 0:05)?
Its value is 6.8.

What about the “Total Cl” value ([5]; sampling time 0:10) of the same compound?
The value was 6.8.

What about the “Total Cl” value ([5]; sampling time 0:15) of the same compound?
Its value is 7.2.

And the “Total Cl” value ([5]; sampling time 0:20)?
The value was 6.8.

What about the “Total Cl” value ([5]; sampling time 0:25) of the same compound?
The value was 6.0.

What about the “Total Cl” value ([5]; sampling time 0:30) of the same compound?
Its value is 5.1.

What about the “Total Cl” value ([5]; sampling time 0:40) of the same compound?
The value was 5.0.

And the “Total Cl” value ([5]; sampling time 0:50)?
The value was 3.3.

What about the “Total Cl” value ([5]; sampling time 1:00) of the same compound?
The value was 3.5.

And the “Total Cl” value ([5]; sampling time 1:15)?
Its value is 2.2.

And the “Total Cl” value ([5]; sampling time 1:30)?
Its value is 2.6.

What about the “Oxidizer Rating” value [2] of the same compound?
The value was 3.

And the Solubility [3]?
The Solubility was “≅22^3 g/100g (%)”.

What does the source list for `O=c1n(Cl)c(=O)n(Cl)c(=O)n1Cl` [Trichloroisocyanuric acid, 1,3,5-trichloro-1,3,5-triazine-2,4,6-trione]?
Oxidizer Rating [2]: 1; Solubility [3]: 1.2^4 g/100g (%); Off-Gassing Titrant Volume [6]: 2.00 mL; Titrant Volume (off-gassing) ([4]; Table 1, compressed powder wafer, 5 ml 15% KI, approximately 50° C., 24 hours, 0.100 N sodium thiosulfate): 2.65 mL; Solubility Titrant Volume [7]: 1.90 mL
